27 compounds from US9108944B2, “Androgen receptor modulators and uses thereof” (ARAGON PHARMACEUTICALS, INC., priority 2010, dated 2015) can be followed below.

Molecules are shown by their SMILES.

The assay addresses T1, AR-VP16 (Homo sapiens, UniProt P10275).
T1 sequence (P10275 560-920 limits assumed): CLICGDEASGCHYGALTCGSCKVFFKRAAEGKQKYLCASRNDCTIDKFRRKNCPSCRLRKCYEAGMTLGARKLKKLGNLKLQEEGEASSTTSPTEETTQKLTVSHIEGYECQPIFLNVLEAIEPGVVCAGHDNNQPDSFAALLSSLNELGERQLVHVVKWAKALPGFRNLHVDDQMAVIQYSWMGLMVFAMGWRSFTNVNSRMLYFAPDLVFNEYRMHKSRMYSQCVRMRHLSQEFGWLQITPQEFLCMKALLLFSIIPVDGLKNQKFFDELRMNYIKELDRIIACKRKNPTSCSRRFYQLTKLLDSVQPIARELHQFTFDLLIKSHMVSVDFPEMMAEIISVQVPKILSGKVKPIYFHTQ
In words: AR-VP16 DNA Binding Assay, antagonist mode (HepG2 cells, 0.1 nM R1881). It is filed as cell-based. The procedure:
Cells were transiently transfected using Lipofectin (Life Technologies) according to the manufacturer's protocol. […] Transfected cells were incubated overnight then treated with ligand. […] For antagonist assays, the compounds were serially diluted and 50 μL of compound with RPMI supplemented with charcoal stripped serum plus methyltrienolone (R1881) were added to the cells. The final R1881 concentration used in the antagonist assays was 0.1 nM. Following 48 hour incubation the medium was removed and the cells were lysed in 40 μL of lysis buffer (25 mM Tris Phosphate, 2 mM CDTA, 10% Glycerol, 0.5% Triton X-100, 2 mM DTT).
As a reminder, the IC50 is the concentration that inhibits the measured activity by half. Read a high IC50 as a need for much substance. As for `Cc1cccc(N2C(=S)N(c3cnc(C#N)c(C(F)(F)F)c3)C(=O)C23CCC3)c1` [Compound 21, 5-(8-Oxo-6-thioxo-5-(m-tolyl)-5,7-diazaspiro[3.4]octan-7-yl)-3-(trifluoromethyl)picolinonitrile], the IC50 is less than 1 µM.
Compound `N#Cc1ncc(N2C(=O)C3(CCC3)N(c3ccc(OCCCC(F)(F)C(F)(F)F)c(F)c3)C2=S)cc1C(F)(F)F` [Compound 134, 5-(5-(3-Fluoro-4-((4,4,5,5,5-pentafluoropentyl)oxy)phenyl)-8-oxo-6-thioxo-5,7-diazaspiro[3.4]octan-7-yl)-3-(trifluoromethyl)picolinonitrile] displayed a 50% inhibitory concentration (IC50) of less than 1 µM.
As for `N#Cc1ncc(N2C(=O)C3(CCC3)N(c3ccc(C(=O)NCc4ccccc4)c(F)c3)C2=S)cc1C(F)(F)F` [Compound 235, N-Benzyl-4-(7-(6-cyano-5-(trifluoromethyl)pyridin-3-yl)-8-oxo-6-thioxo-5,7-diazaspiro[3.4]octan-5-yl)-2-fluorobenzamide], the figure is less than 1 µM; as for `N#Cc1ncc(N2C(=O)C3(CCC3)N(c3ccc(C(=O)NCCCc4ccccc4)c(F)c3)C2=S)cc1C(F)(F)F` [Compound 258, 4-(7-(6-Cyano-5-(trifluoromethyl)pyridin-3-yl)-8-oxo-6-thioxo-5,7-diazaspiro[3.4]octan-5-yl)-2-fluoro-N-(3-phenylpropyl)benzamide], less than 1 µM; as for `N#Cc1ncc(N2C(=O)C3(CCC3)N(c3ccc(OCCN4CCCCC4)c(F)c3)C2=S)cc1C(F)(F)F` [Compound 177, 5-(5-(3-Fluoro-4-(2-(piperidin-1-yl)ethoxy)phenyl)-8-oxo-6-thioxo-5,7-diazaspiro[3.4]octan-7-yl)-3-(trifluoromethyl)picolinonitrile], less than 1 µM.
As for `CNC(=O)c1ccc(N2C(=S)N(c3ccc(C#N)c4ncccc34)C(=O)C23CCC3)cc1F` [Compound 37, 4-(7-(8-Cyanoquinolin-5-yl)-8-oxo-6-thioxo-5,7-diazaspiro[3.4]octan-5-yl)-2-fluoro-N-methylbenzamide], the figure is less than 1 µM; as for `CNC(=O)c1ccc(N2C(=S)N(c3cnc(C#N)c(C)c3)C(=O)C23CCC3)cc1Cl` [Compound 108, 2-Chloro-4-(7-(6-cyano-5-methylpyridin-3-yl)-8-oxo-6-thioxo-5,7-diazaspiro[3.4]octan-5-yl)-N-methylbenzamide], less than 1 µM.
For `Cc1ccccc1CCOc1ccc(N2C(=S)N(c3cnc(C#N)c(C(F)(F)F)c3)C(=O)C23CCC3)cc1F` [Compound 137, 5-(5-(3-Fluoro-4-(2-methylphenethoxy)phenyl)-8-oxo-6-thioxo-5,7-diazaspiro[3.4]octan-7-yl)-3-(trifluoromethyl)picolinonitrile], the IC50 is less than 1 µM.
To `Cc1cc(N2C(=O)C3(CCC3)N(c3ccc(C(=O)Nc4ccc(F)cc4)c(F)c3)C2=S)cnc1C#N` [Compound 299, 4-(7-(6-Cyano-5-methylpyridin-3-yl)-8-oxo-6-thioxo-5,7-diazaspiro[3.4]octan-5-yl)-2-fluoro-N-(4-fluorophenyl)benzamide] belongs less than 1 µM; to `CN1CCN(CCCc2ccc(N3C(=S)N(c4cnc(C#N)c(C(F)(F)F)c4)C(=O)C34CCC4)cc2)CC1` [Compound 124, 5-(5-(4-(3-(4-Methylpiperazin-1-yl)propyl)phenyl)-8-oxo-6-thioxo-5,7-diazaspiro[3.4]octan-7-yl)-3-(trifluoromethyl)picolinonitrile], less than 1 µM; to `N#Cc1ncc(N2C(=O)C3(CCC3)N(c3ccc(C(=O)NCc4ccccn4)c(F)c3)C2=S)cc1C(F)(F)F` [Compound 264, 4-(7-(6-Cyano-5-(trifluoromethyl)pyridin-3-yl)-8-oxo-6-thioxo-5,7-diazaspiro[3.4]octan-5-yl)-2-fluoro-N-(pyridin-2-ylmethyl)benzamide], less than 1 µM.
To `COCCNC(=O)c1ccc(N2C(=S)N(c3cnc(C#N)c(C(F)(F)F)c3)C(=O)C23CCC3)cc1F` [Compound 248, 4-(7-(6-Cyano-5-(trifluoromethyl)pyridin-3-yl)-8-oxo-6-thioxo-5,7-diazaspiro[3.4]octan-5-yl)-2-fluoro-N-(2-methoxyethyl)benzamide] belongs greater than 1 µM; to `N#Cc1ncc(N2C(=O)C3(CCC3)N(c3ccc(Oc4cncnc4)cc3)C2=S)cc1C(F)(F)F` [Compound 42, 5-(8-Oxo-5-(4-(pyrimidin-5-yloxy)phenyl)-6-thioxo-5,7-diazaspiro[3.4]octan-7-yl)-3-(trifluoromethyl)picolinonitrile], less than 1 µM.
To `N#Cc1ncc(N2C(=O)C3(CCC3)N(c3ccc(O)cc3F)C2=S)cc1C(F)(F)F` [Compound 64, 5-(5-(2-Fluoro-4-hydroxyphenyl)-8-oxo-6-thioxo-5,7-diazaspiro[3.4]octan-7-yl)-3-(trifluoromethyl)picolinonitrile] belongs less than 1 µM; to `Cc1cc(N2C(=O)C3(CCC3)N(c3ccc(C(=O)NC4CCOCC4)c(F)c3)C2=S)cnc1C#N` [Compound 310, 4-(7-(6-Cyano-5-methylpyridin-3-yl)-8-oxo-6-thioxo-5,7-diazaspiro[3.4]octan-5-yl)-2-fluoro-N-(tetrahydro-2H-pyran-4-yl)benzamide], greater than 1 µM; to `N#Cc1ncc(N2C(=O)C3(CCC3)N(c3ccc(-c4cccnc4)cc3)C2=S)cc1C(F)(F)F` [Compound 17, 5-(8-Oxo-5-(4-(pyridin-3-yl)phenyl)-6-thioxo-5,7-diazaspiro[3.4]octan-7-yl)-3-(trifluoromethyl)picolinonitrile], less than 1 µM.
For the compound `N#Cc1ncc(N2C(=O)C3(CCC3)N(c3ccc(OCCN4CCCC4)c(F)c3)C2=S)cc1C(F)(F)F` [Compound 127, 5-(5-(3-Fluoro-4-(2-(pyrrolidin-1-yl)ethoxy)phenyl)-8-oxo-6-thioxo-5,7-diazaspiro[3.4]octan-7-yl)-3-(trifluoromethyl)picolinonitrile], the 50% inhibitory concentration (IC50) was less than 1 µM.
To `N#Cc1ncc(N2C(=O)C3(CCC3)N(c3ccc(Oc4ncccn4)cc3)C2=S)cc1C(F)(F)F` [Compound 206, 5-(8-Oxo-5-(4-(pyrimidin-2-yloxy)phenyl)-6-thioxo-5,7-diazaspiro[3.4]octan-7-yl)-3-(trifluoromethyl)picolinonitrile] belongs less than 1 µM.
As to `CC(C)(O)CNC(=O)c1ccc(N2C(=S)N(c3cnc(C#N)c(C(F)(F)F)c3)C(=O)C23CCC3)cc1F` [Compound 285, 4-(7-(6-Cyano-5-(trifluoromethyl)pyridin-3-yl)-8-oxo-6-thioxo-5,7-diazaspiro[3.4]octan-5-yl)-2-fluoro-N-(2-hydroxy-2-methylpropyl)benzamide], the 50% inhibitory concentration (IC50) was greater than 1 µM.
To `CN(Cc1ccncc1)Cc1ccc(N2C(=S)N(c3cnc(C#N)c(C(F)(F)F)c3)C(=O)C23CCC3)cc1` [Compound 92, 5-(5-(4-((Methyl(pyridin-4-ylmethyl)amino)methyl)phenyl)-8-oxo-6-thioxo-5,7-diazaspiro[3.4]octan-7-yl)-3-(trifluoromethyl)picolinonitrile] belongs less than 1 µM; to `CS(=O)(=O)c1ccc(N2C(=S)N(c3cnc(C#N)c(C(F)(F)F)c3)C(=O)C23CCC3)cc1` [Compound 80, 5-(5-(4-(Methylsulfonyl)phenyl)-8-oxo-6-thioxo-5,7-diazaspiro[3.4]octan-7-yl)-3-(trifluoromethyl)picolinonitrile], less than 1 µM; to `N#Cc1ncc(N2C(=O)C3(CCC3)N(c3ccc(C(=O)NC4CC4)c(F)c3)C2=S)cc1C(F)(F)F` [Compound 284, 4-(7-(6-Cyano-5-(trifluoromethyl)pyridin-3-yl)-8-oxo-6-thioxo-5,7-diazaspiro[3.4]octan-5-yl)-N-cyclopropyl-2-fluorobenzamide], less than 1 µM.
Take `N#Cc1ccc(N2C(=O)C3(CCC3)N(c3ccc(OCCc4ccccn4)c(F)c3)C2=S)c2cccnc12` [Compound 172, 5-(5-(3-Fluoro-4-(2-(pyridin-2-yl)ethoxy)phenyl)-8-oxo-6-thioxo-5,7-diazaspiro[3.4]octan-7-yl)quinoline-8-carbonitrile]: the IC50 was less than 1 µM.
The compound `CN1CCN(CCOc2ccc(N3C(=S)N(c4ccc(C#N)c5ncccc45)C(=O)C34CCC4)cc2F)CC1` [Compound 173, 5-(5-(3-Fluoro-4-(2-(4-methylpiperazin-1-yl)ethoxy)phenyl)-8-oxo-6-thioxo-5,7-diazaspiro[3.4]octan-7-yl)quinoline-8-carbonitrile] had an IC50 of less than 1 µM.
To `Cc1cc(N2C(=O)C3(CCC3)N(c3ccc(C(=O)Nc4ncco4)c(F)c3)C2=S)cnc1C#N` [Compound 300, 4-(7-(6-cyano-5-methylpyridin-3-yl)-8-oxo-6-thioxo-5,7-diazaspiro[3.4]octan-5-yl)-2-fluoro-N-(oxazol-2-yl)benzamide] belongs less than 1 µM; to `Cc1ccc(N2C(=S)N(c3cc(C#N)n(C)c3)C(=O)C23CCC3)cc1` [Compound 114, 1-Methyl-4-(8-oxo-6-thioxo-5-(p-tolyl)-5,7-diazaspiro[3.4]octan-7-yl)-1H-pyrrole-2-carbonitrile], greater than 1 µM.
To `COCCOc1ccc(N2C(=S)N(c3cnc(C#N)c(C(F)(F)F)c3)C(=O)C23CCC3)c(F)c1` [Compound 181, 5-(5-(2-Fluoro-4-(2-methoxyethoxy)phenyl)-8-oxo-6-thioxo-5,7-diazaspiro[3.4]octan-7-yl)-3-(trifluoromethyl)picolinonitrile] belongs less than 1 µM.
